From PubChem BioAssay AID1645861 (Buhrlage Lab, Dana-Farber Cancer Institute and Novartis …, 2021)
Active and inactive are the calls of the source.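 The calls were made as follows: active = compounds whose peak USP7 inhibition across the dose series reached 30% or more; inactive = the rest.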

Target: Ubiquitin carboxyl-terminal hydrolase 7 (Homo sapiens) (UniProt Q93009)
Assay: Biochemical concentration-response for ubiquitin-specific peptidase 7 DUB inhibitors, verifying primary hits (AID 1645861)
Conditions: purified USP7, Ub-rhodamine cleavage fluorescence, 60 min

Chain of Ubiquitin carboxyl-terminal hydrolase 7 (Homo sapiens) (Q93009 whole entry, looked up): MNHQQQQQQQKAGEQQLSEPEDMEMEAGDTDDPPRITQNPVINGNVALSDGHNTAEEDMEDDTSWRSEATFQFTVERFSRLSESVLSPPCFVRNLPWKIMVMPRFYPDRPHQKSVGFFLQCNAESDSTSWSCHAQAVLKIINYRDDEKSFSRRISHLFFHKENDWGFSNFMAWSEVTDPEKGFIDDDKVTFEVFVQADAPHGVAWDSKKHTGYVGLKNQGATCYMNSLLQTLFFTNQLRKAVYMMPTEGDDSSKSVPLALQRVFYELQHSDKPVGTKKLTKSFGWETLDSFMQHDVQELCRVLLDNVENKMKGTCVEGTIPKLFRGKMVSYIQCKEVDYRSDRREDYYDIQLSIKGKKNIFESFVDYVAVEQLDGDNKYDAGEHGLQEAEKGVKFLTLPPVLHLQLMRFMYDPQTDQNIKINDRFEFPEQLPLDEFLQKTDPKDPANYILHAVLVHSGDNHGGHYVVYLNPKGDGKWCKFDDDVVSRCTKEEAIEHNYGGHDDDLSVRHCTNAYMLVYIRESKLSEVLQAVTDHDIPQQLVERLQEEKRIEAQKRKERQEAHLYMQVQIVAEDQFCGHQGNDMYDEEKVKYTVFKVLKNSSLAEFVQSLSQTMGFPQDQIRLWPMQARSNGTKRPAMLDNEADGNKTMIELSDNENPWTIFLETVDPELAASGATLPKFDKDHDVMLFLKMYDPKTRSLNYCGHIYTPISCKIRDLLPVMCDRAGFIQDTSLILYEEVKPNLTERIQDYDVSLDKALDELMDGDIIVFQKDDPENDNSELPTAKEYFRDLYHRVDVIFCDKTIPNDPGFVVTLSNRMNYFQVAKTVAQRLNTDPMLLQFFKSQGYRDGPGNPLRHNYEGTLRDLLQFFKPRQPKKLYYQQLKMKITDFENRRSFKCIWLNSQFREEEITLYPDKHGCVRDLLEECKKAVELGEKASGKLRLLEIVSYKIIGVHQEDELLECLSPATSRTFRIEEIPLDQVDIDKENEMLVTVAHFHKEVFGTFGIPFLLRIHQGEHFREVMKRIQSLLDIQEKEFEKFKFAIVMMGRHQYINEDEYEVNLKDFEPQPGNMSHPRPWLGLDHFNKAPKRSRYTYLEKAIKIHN

| IC50 | Structure (SMILES) |
| --- | --- |
| > 50 µM (inactive) | Cc1ccc(-c2cc(C(F)F)n3ncc(C(=O)Nc4ccc(O)cc4)c3n2)cc1 |
| > 50 µM (inactive) | COc1ccc(-c2cc(-c3ccccc3)nc(SCC(N)=O)c2C#N)cc1OC |
| 49.6 µM | O=S(=O)(Nc1ccc(Oc2ncnc3cc(Cl)ccc23)nc1)c1ccc(S(=O)(=O)c2ccccc2)s1 |
| > 50 µM (inactive) | N#Cc1cn2c(nc1-c1ccc(Cl)cc1)nc1ccccc12 |
| > 50 µM (inactive) | COc1cc(Cl)c(NC(=O)C2Cc3ccccc3N2C(=O)c2ccccc2)c(OC)c1 (stereo not drawn) |
| > 50 µM (inactive) | Cc1cc(OCC(=O)Nc2ccccc2C(=O)Nc2ccccc2)ccc1Cl |
| > 50 µM (inactive) | O=C1Cc2ccccc2C(=O)N1c1ccc2c(c1)OCO2 |
| 16.3 µM | O=C1c2c(O)c(Cl)cc3c2[C@@]2(Oc4ccc(O)c5c4[C@]3(O2)[C@@H]2O[C@@H]2C5=O)[C@@H]2O[C@H]12 |
| 23.7 µM | COc1ccc(C2/C(=C(\O)c3ccccc3)C(=O)C(=O)N2c2nc3ccc(F)cc3s2)cc1 (stereo not drawn) |
| > 50 µM (inactive) | COc1cc2c(c(OCC(=O)Nc3ccc4c(c3)OCCO4)c1)C(=O)O[C@@H](C)CCCC(=O)CCCCC2 |
| > 50 µM (inactive) | O=C(CSc1nnc2n(-c3ccccc3)c(=O)c3ccccc3n12)c1ccc(F)cc1 |
| > 50 µM (inactive) | O=C1NC(=O)/C(=C/c2ccc(OC(=O)c3ccc(Cl)cc3Cl)cc2)N1 |
| > 50 µM (inactive) | COc1ccccc1N1CCN(C(=O)c2ccc3c(=O)n(CCc4ccccc4)c(=O)[nH]c3c2)CC1 |
| > 50 µM (inactive) | CC(C)CC1NC(=O)C2CCCN2C1=O (stereo not drawn) |
| 38.5 µM | Cc1ccnc(Nc2nc(-c3ccccc3)c3cc(Cl)ccc3n2)n1 |
| > 50 µM (inactive) | O=C(Cn1cc(C(=O)C(F)(F)F)c2cc(Br)ccc21)N1CCc2ccccc21 |
| > 50 µM (inactive) | Cc1ccc(-n2cc(C(=O)NCCCc3ccccc3)nn2)cc1 |
| > 50 µM (inactive) | O=C(Nc1cc(F)c2nc(N3CCOCC3)ccc2c1)C1CC1 |
| > 50 µM (inactive) | CC1=C(C)C(N(c2ccccc2)c2ccccc2)N(CCC(C)C)C1=O (stereo not drawn) |
| > 50 µM (inactive) | O=c1[nH]c(C2CCN(S(=O)(=O)c3ccc(S(=O)(=O)NC4CC4)cc3)CC2)nc2c1nnn2Cc1c(Cl)cccc1Cl |
| > 50 µM (inactive) | COc1cccc(NC(=O)C(Sc2cccc(NC(=O)c3ccccc3F)c2)c2ccccc2)c1 (stereo not drawn) |

| IC50 | Structure (SMILES) |
| --- | --- |
| > 50 µM (inactive) | CCC(=O)Nc1cccnc1-c1ccc(C(=O)Nc2ccc3c(c2)OCO3)cc1 |
| > 50 µM (inactive) | COc1ccc(-c2cc(-c3ccc(F)cc3)[nH]c(=O)c2C#N)cc1 |
| > 50 µM (inactive) | CCn1cc2c(n1)c(=O)n(Cc1ccccc1)c(=O)n2CC(=O)Nc1ccc(OC)cc1 |
| 20.5 µM | FC(F)(F)c1ccc(Nc2nnnc3ccccc23)cc1 |
| > 50 µM (inactive) | O=C(O)CCCCCN1C(=O)CC(c2ccc(Cl)cc2)CC1=O |
| 10 µM | Cc1ccc(S(=O)(=O)Nc2ccccc2C(=O)Nc2nc3ccc(Br)cc3s2)cc1 |
| 23.2 µM | CCC1OC(O)(C(C)C(O)C(C)C2OC(=O)/C(C)=C/C(C)=CC(C)C(O)C(C)C/C(C)=C/C=C/C2OC)CC(OC(=O)/C=C/C(=O)NC2=C(O)CCC2=O)C1C (stereo not drawn) |
| > 50 µM (inactive) | COc1ccc(OC)c(NC(=O)Cn2c(=O)n(C3CCCCC3)c(=O)c3ccccc32)c1 |
| > 50 µM (inactive) | CC(C)=CCC/C(C)=C/COc1ccc(/C=C2\C(=O)N(O)[C@@H](C)C(=O)N2O)cc1 |
| > 50 µM (inactive) | COc1ccc(-c2c(NC(=O)C3COc4ccccc4O3)n[nH]c2C)cc1OC (stereo not drawn) |
| 18.3 µM | COc1cccc2cc(C(=O)Nc3nc(-c4ccncc4)cs3)oc12 |
| > 50 µM (inactive) | Cc1cccc(OCCn2c(CCNC(=O)C3CCCCC3)nc3ccccc32)c1 |
| > 50 µM (inactive) | O=C(Nc1ccccc1)[C@@H]1[C@@H]2C(=O)N(c3ccc([N+](=O)[O-])cc3)C(=O)[C@@H]2[C@H]2c3ccccc3C=CN12 |
| 31.4 µM | O=c1ccc(-c2cc3ccccc3o2)cn1Cc1ccccc1-c1ccccc1 |
| > 50 µM (inactive) | CC(NC(=O)c1ccccc1)c1nc2ccccc2n1CC(=O)Nc1ccc(OC(F)(F)F)cc1 (stereo not drawn) |
| > 50 µM (inactive) | COc1cc(NC(=O)Cc2ccccc2)ccc1NC(=O)c1cc2ccccc2o1 |
| > 50 µM (inactive) | Cc1ccc(C(=O)c2cn(CC(=O)Nc3ccc4c(c3)OCO4)c3ccccc3c2=O)cc1 |
| > 50 µM (inactive) | O=C(Cn1c(=O)n(CCC(=O)N2CCc3ccccc3C2)c(=O)c2ccccc21)NCc1ccccc1Cl |
| 28.9 µM | COc1ccccc1-c1nc(-c2cn(-c3cccc(Cl)c3)nn2)no1 |
| > 50 µM (inactive) | COc1ccc(NC(=O)Cn2c(=O)n(CCC(=O)NCc3ccccc3)c(=O)c3sccc32)cc1Cl |
| 9.02 µM | CC(C)=CCC(O)C1=CC(=O)c2c(O)ccc(O)c2C1=O (stereo not drawn) |

| IC50 | Structure (SMILES) |
| --- | --- |
| 47 µM | COc1ccc(NC(=O)Cn2cc(C(=O)c3ccc(Cl)cc3)c(=O)c3cc(F)ccc32)cc1 |
| > 50 µM (inactive) | O=C(CCCc1nnc2c(=O)n(-c3cccc(F)c3)ccn12)NCc1ccc(F)cc1 |
| 15.8 µM | O=C(O)C1C(C(=O)Nc2ccccc2)C2(c3ccccc3)C(=O)C1(c1ccccc1)C(c1ccccc1)=C2c1ccccc1 (stereo not drawn) |
| > 50 µM (inactive) | COc1ccc(NS(=O)(=O)c2cc(NC(=O)CC(=O)c3ccc([N+](=O)[O-])cc3)ccc2Cl)cc1 |
| > 50 µM (inactive) | O=C(CSc1ccc(-c2cccc([N+](=O)[O-])c2)nn1)Nc1cccc(F)c1 |
| > 50 µM (inactive) | N#Cc1c(-c2ccc(Cl)cc2)cc(-c2cccc(Br)c2)[nH]c1=O |
| > 50 µM (inactive) | Cc1ccc(NC(=O)c2ccc3nn(CC(=O)Nc4ccc(F)cc4F)c(=O)n3c2)cc1 |
| > 50 µM (inactive) | O=C(CCCc1nnc2c(=O)n(-c3cccc(F)c3)ccn12)NCc1ccc(Cl)cc1 |
| > 50 µM (inactive) | COc1cccc(-n2cnc3cc(C(=O)NCCc4ccccc4)ccc3c2=O)c1 |
| > 50 µM (inactive) | O=C1CC(c2nc3ccccc3n2CCOc2ccc(Cl)cc2)CN1c1ccccc1 (stereo not drawn) |
| > 50 µM (inactive) | O=C(NCc1ccc2c(c1)OCO2)c1[nH]nc2c1COc1ccccc1-2 |
| > 50 µM (inactive) | O=C1c2c(O)cccc2C2(Oc3cccc4cccc(c34)O2)C2OC12 (stereo not drawn) |
| > 50 µM (inactive) | CCOc1cccc(-c2noc(-c3nn(-c4ccccc4)ccc3=O)n2)c1 |
| > 50 µM (inactive) | O=C(COc1ccc(N2CC(C(=O)NCc3ccc4c(c3)OCO4)CC2=O)cc1)Nc1ccc(F)cc1 (stereo not drawn) |
| 2.81 µM | O=c1cc(-c2ccc(O)c(O)c2)oc2cc(O)cc(O)c12 |
| > 50 µM (inactive) | CCCCCCCCCC(CCCCCCCCCC(=O)O)O[C@H]1O[C@@H](COC(C)=O)[C@H](O)[C@@H](OC(=O)CC(=O)O)[C@H]1O (stereo partly drawn) |
| > 50 µM (inactive) | Cc1cccc(N2C(=O)/C(=C\c3cc(C#N)n(C)c3C)c3ccccc3C2=O)c1 |
| > 50 µM (inactive) | CC(C)c1ccc(NC(=O)c2cc(-c3cccnc3)n[nH]2)cc1 |
| 45.6 µM | O=C1c2ccccc2C(=O)c2c(O)c(O)cc(O)c21 |

| Structure (SMILES) | IC50 |
| --- | --- |
| CC(C)=CCOC(C)(C)[C@H]1OC2CC[C@@]3(C)C(CCC4Cc5c([nH]c6ccccc56)[C@@]43C)C23OC3[C@@H]1O (stereo partly drawn) | 37.7 µM |
| C=C/C(=C/C(=O)C[C@H](C)C[C@@H](C)CC[C@H](O)[C@H](C)C(=O)CC(O)[C@H](C)[C@@H](C)OC(=O)C[C@@H](O)C1=C(C)C(=O)OC1=O)CC (stereo partly drawn) | 43.1 µM |
